The target in assay [1] is T1, cRABP (cellular Retinoic Acid-Binding Protein) (Rattus norvegicus, UniProt P62966). The experiment in a line: Saturation test: fixation of ligand on soluble cRABP of rat testicle homogenate. The conditions noted are these: for nonspecific fixation (% of the total fixation): in the presence of a large excess (1 μM) of retinoic acid, ligand up to 50 nM. More on the design: a homogenate of rat testicles (organ rich in cRABP); from tissue; host or cells: rat testicles (homogenate), inferred from the saturation test. How it is done: The total fixation (nonspecific +specific) (curva a), is obtained by incubation of increasing concentrations (up to a maximum of 50 nM) of the compound of the present invention with a constant quantity (0.3 ml) of a homogenate of rat testicles (organ rich in cRABP). […] An incubation time for 2 hours is necessary for the establishment of equilibrium conditions.
Once equilibrium is reached, the cRABP-tritiated ligand complex is separated from the nonlinked ligand by filtration on an exclusion gel Sephadex G25 column (Bio-Rad econo columns, 0.5×20 cm): the complex is eluted (elution peak at 2.5 ml), while the nonlinked ligand is retained in total on the column. A total separation is thus effected between the linked and nonlinked product. The eluation is made directly in the scintillation tubes and the radioactivity is measured by counting.
On FIG. 1, there is represented, on the abscissa, the initial concentrations of the ligand being studied, and on the ordinate, the concentrations at equilibrium of the ligand-receptor complex.
The difference between curves a (total fixation) and c (nonspecific fixation) gives the curve of specific fixation, curve b. The analysis of this curve provides the dissociation constant at equilibrium, (Kd), which is the concentration of product necessary for 50% saturation of the soluble receptor. This constant is a measure of the affinity of the ligand for its receptor, Kd being inversely proportional to affinity, (the weaker Kd is, the greater is the affinity).

The target in assay [2] is T1, cRABP (cellular Retinoic Acid-Binding Protein). The experiment in a line: Competition test of cold ligand against radioactive ligand for fixation on cRABP.
Description: These competition tests are carried out in the following manner: a fixed amount of the radioactive ligand (corresponding essentially to the half-saturation of the fixed amount of receptor which will be employed), is mixed with increasing quantities of cold ligand (nonradioactive). The receptor is then added and there is determined the amount of radioactive ligand fixed at equilibrium (in % of initial fixation in the absence of cold ligand, for the amount of receptor considered).
Starting from the competition curves of FIGS. 2 to 7, there is determined in each case the IC50 (concentration of cold ligand reducing the attachment of 50% of the tritiated ligand). This IC50 value permits the calculation in each case of the dissociation constant at equilibrium (Kd) for the cold ligand.

T1 sequence (P62966 whole entry): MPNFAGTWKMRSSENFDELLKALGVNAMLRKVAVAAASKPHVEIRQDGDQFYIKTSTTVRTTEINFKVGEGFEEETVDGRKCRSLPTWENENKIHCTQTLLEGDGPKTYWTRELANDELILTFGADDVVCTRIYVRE

In the case of `CC1=C(/C=C/C(C)=C/C=C/C(C)=C/C(=O)O)C(C)(C)CCC1` [retinoic acid], in assay [1], the “nonspecific fixation (% of the total fixation)” value is given as “approximately 25%”.

Consider `[3H]c1cc2c(cc1-c1cc3ccc(C(=O)O)cc3s1)C(C)(C)CCC2(C)C` [Example 1, 2-(3-^3 H-5,6,7,8-tetrahydro-5,5,8,8-tetramethyl-2-naphthyl)-6-benzo [b] thiophene carboxylic acid], for which the “nonspecific fixation (character)” value in assay [1] (in the concentration range employed (up to 50 nM)) is “linear and nonsaturable”. Also, the “nonspecific fixation (% of the total fixation)” value in assay [1] was “less than 10%”. In addition, the “specific fixation (character)” value in assay [1] (saturation test, rat testicle homogenate) is “saturable and reversible”. For the same compound, in assay [1] (saturation test, rat testicle homogenate, 2 hours incubation, nonlinear regression (Clark equation), read-out: Kd (dissociation constant at equilibrium)), the Kd stood at 2.7 ± 0.5 nM.

With `C/C(=C\c1ccc(C(=O)O)cc1)c1ccc2c(c1)C(C)(C)CCC2(C)C` [compound B], the Kd in assay [2] was 16 nM; in assay [2] (Kd of the cold ligand, radioactive ligand: tritiated retinoic acid, calculated from IC50 of competition curve) it was 20 nM.

`CC1(C)CCC(C)(C)c2cc(-c3cc4ccc(C(=O)O)cc4s3)ccc21` [compound A, 2-(5,6,7,8-tetrahydro-5,5,8,8-tetramethyl-2-naphthyl)-6-benzo [b] thiophene carboxylic acid]: the Kd in assay [2] is 6 nM.

The record behind these values is patent US4880941A, “Trittum labelled compound, its preparation and its use in the determination of the affinity of retinoids for their cellular receptor” (priority 1986, dated 1989).
